# Ends that are not written are not given here.
# Test: Body weight (Example 2)
# Assay type: in vivo, mice
# Settings: various levels of peptide injection or time course of injection postinfection
# Excerpt: Female C57BL/6 mice, 4-weeks old, were obtained from Charles River Laboratories Inc. (Wilmington, Del.). Animals were cared for as required by the University of Arizona Committee on Animal Research. After 2 weeks housing in the animal facility in the Arizona Health Science Center (Tucson, Ariz.), they were randomly assigned to one of the following treatments with 8 mice per group for study A: (1) uninfected, normal mice; (2) uninfected, normal mice injected with saline (pyrogen free); (3) LP-BM5-infected mice injected with 5 μg TCR Vβ CDRI peptide; (4) LP-BM5infected mice injected with 25 μg TCR Vβ CDR1 peptide; (5) LP-BM5 infected mice injected with 100 μg TCR Vβ CDR1 peptide; (6) LP-BM5-infected mice injected with 200 μg TCR Vβ CDR1 peptide; (7) LP-BM5-infected mice injected with 500 μg TCR Vβ CDR1 peptide; (8) LP-BM5-infected mice injected with saline and 200 μg Poly AU adjuvant; (9) LP-BM5-infected mice injected with 25 μg TCR Vβ CDR1 peptide and 230 μg Poly AU adjuvant; (10) LP-BM5-infected mice injected with saline and 230 μg Ribi MPL TDM CWS adjuvant; (11) LP-BM5-infected mice injected with 5 μg TCR Vβ CDR1 peptide and 230 μg Ribi MPL TDM CWS adjuvant; and (12) LP-BM5-infected mice injected with 25 μg TCR Vβ CDR1 peptide and 230 Ribi MPL TDM CWS adjuvant.
# Administration of peptides (dissolved in saline) and adjuvants were performed 2 weeks after LP-BM5 infection. […]
sequence,measurement,value
"CKPISGHNSLFWYRQT [TCR Vβ CDR1 peptide, Cys Lys Pro Ile Ser Gly His Asn Ser Leu Phe Trp Tyr Arg Gln Thr]",body weight of the mice,not affected

# — patent US5911990A, “T-cell receptor peptides and methods for preventing the progression to AIDS in an animal model” (Arizona Board of Regents on Behalf of the University of …, priority 1996, dated 1999)
